Measurements published in US8906884B2, “Method of treating graft-rejection using dextran sulfate” (TX Medic AB, priority 2002, dated 2014).
Where two headings read alike, the source gives them in different places.

How the values were obtained:
[1] = test system: porcine islets transplanted into diabetic athymic mice
Procedure: After being cultured for 4 days, 5 μl of API (˜5000 IEQs) from five isolations were transplanted into the liver via the portal vein of 11 male inbred diabetic athymic mice, which were anesthetized during surgery with isoflurene. […] Six (untreated) mice were injected with an equivalent volume of saline in the same manner.
(§1) Islets were sectioned and subsequently stained with horseradish peroxidase (HRP) conjugated mouse anti-human CD41a (R&D Systems, Abigdon, UK) and anti-CD11b^+ (Clone 2LPM 19c, DAKO, Carpinteria, Calif., USA). In the in vivo study, the API-containing mouse livers were retrieved 10 days after transplantation and snap-frozen in isopentane. The samples were sectioned and stained with guinea pig anti-insulin (DAKA, Carpinteria, Calif., USA) and rat anti-mouse CD11b^+ (Serotec Ltd. Scandinavia, Oslo, Norway).

[2] = test system: porcine islets perfused with human blood
Procedure: (§2) This protocol is basically performed as previously described with some modifications. In general words, loops made of PVC (diameter 6.3 mm, length 390 mm), whose inner surface was furnished with immobilized heparin, were used. The tubing was held together with a specially designed heparinized connector. A circular loop was formed when the ends of the connector were tightly pushed into the lumen of the tubing ends. A rocking apparatus, placed in a 37° C. incubator, was used to generate blood flow inside the loops. The loops were rocked at a setting that prevented the blood from coming in contact with the connectors.
(§3) Seven 60-min islet experiments were performed, using API isolated from four different pigs. […] For each experiment, one loop containing fresh human blood and saline without API was included as a control. […] Concurrently, pre-incubation of human blood with 1 mg/ml of LMW-dextran, which was not sulfated, was tested in five experiments. In each experiment, 7 ml of fresh human blood from the same donor was added to each loop. […] Thereafter, the loops were opened, and 100 μl of saline with or without 5 μl of API (approximately 5,000 IEQ) was added to the loops and followed by another 60-min incubation on the rocking device at 37° C. Blood glucose levels were measured with a glucometer (Glucometer Elite; Bayer Diagnostics, Leverkusen, Germany) before the perfusion.
as §1

[3] = test system: clot formation induced by API in human blood
Procedure: Blood was drawn from four healthy volunteers into Vacutainer™ tubes containing citrate. Whole blood (980 μl) was incubated with 2 μl of API at 37° C. in polypropylene sample cups in a ReoRox™ rheometer (Global Haemostasis International, Gothenburg, Sweden). […] Every 6 s, the cup was set into free torsional oscillation around its vertical axis, and the damping and frequency of the oscillation was registered. Clotting time was identified as the point of maximal damping.

[4] = test system: complement system; conditions: FIG. 3, in words
Procedure: At 5, 10, 15, 30, 45, and 60 min after serum incubation at 37° C., 100 μl of serum was transferred to tubes containing 10 mM EDTA. These samples were stored at −70° C. before analysis of the complement components C3a and sC5b-9.
Filled bars represent generation of C3a and unfilled correspond to sC5b-9.

[5] = test system: IBMIR triggered by API in fresh human blood
Procedure: as §2, §3
After every perfusion, the loop contents were filtered through 70 μm-diameter filters (Filcons, Cuptype; DAKO, Denmark). Both macroscopic blood clots and tissue recovered on the filters were snap-frozen in isopentane for immunohistochemical staining. The remaining filtered blood was collected in 4.1 mM EDTA (final concentration) and used for hematological analysis (platelets, lymphocytes, monocytes, and granulocytes) and assays of coagulation activation (thrombin-antithrombin [TAT], factor XIa-antithrombin complexes [FXIa-AT], and factor XIIa-antithrombin complexes [FXIIa-AT]), fibrinolysis activation (plasmin-alpha 2 antiplasmin complexes [PAP]), complement activation (C3a and sC5b-9), and C1 esterase inhibitor activation (factor XIa-C1 esterase inhibitor [FXIa-C1 INH], factor XIIa-C1 esterase inhibitor [FXIIa-C1 INH]). Samples taken at 0, 15, and 30 min were also analyzed. In 0-min samples, the blood was not added to the tubing loop but was instead transferred immediately to the EDTA-containing tubes. The blood samples were centrifuged at 4° C. at 3290×g for 20 min, and the plasma was collected and stored at −70° C. until analyzed.
Platelet counts and differential leukocyte counts were analyzed on a Coulter ACT-diff analyzer (Beckman Coulter, Fla., USA) using EDTA-treated blood. TAT and PAP were quantified using commercially available enzyme immunoassays (EIA) kits (Enzygnost TAT, Behringswerke, Marburg, Germany; Imuclone® PAP, American Diagnostica Inc., Greenwich, USA). FXIa-AT, FXIIa-AT, FXIa-C1 INH, and FXIIa-C1 INH were analyzed according to the method of Sanchez et al.. C3a was analyzed as previously described by Nilsson Ekdahl et al., and sC5b-9 was analyzed using a modification of the EIA described by Mollnes et al..

[6] = Table 4 comparison, 60 min API perfusion, 1 mg/ml, n = 5
[7] = after 60 min perfusion, API with 0.01 mg/ml, n = 7
[8] = after 60 min perfusion, API with 0.1 mg/ml, n = 7
[9] = after 60 min perfusion, API with 1 mg/ml, n = 7

Low molecular weight dextran sulfate [LMW-DS]
Frequency of clot formation and intensity of leukocyte infiltration versus untreated recipients ([1]; p=0.034, in words): significantly lower | Islets entrapped in clots ([1]; treated mice, FIG. 9, in words): only a few islets | Infiltrating CD11b+ (MAC-1+) cells ([1]; treated mice, FIG. 11, in words): markedly fewer | Number of infiltrating CD11b+ cells ([2]; 1 mg/ml, 60 min, FIG. 5, in words): decreased considerably | Clot formation around islets ([2]; 1 mg/ml, 60 min, in words): complete inhibition | Layer of platelets adhering to the islets ([2]; FIG. 7, in words): much thinner layer | Clot formation / clotting time versus no additives ([3]; 0.01 and 0.1 mg/ml, in words): totally abrogated | Clotting time ([3]; experiment 1, 0.01 mg/ml): >60 min | Clotting time ([3]; experiment 1, 0.1 mg/ml): >60 min | Clotting time ([3]; experiment 2, 0.01 mg/ml): >60 min | Clotting time ([3]; experiment 2, 0.1 mg/ml): >60 min | Clotting time ([3]; experiment 3, 0.01 mg/ml): >60 min | Clotting time ([3]; experiment 3, 0.1 mg/ml): >60 min | Clotting time ([3]; experiment 4, 0.01 mg/ml): >60 min | Clotting time ([3]; experiment 4, 0.1 mg/ml): >60 min | Generation of C3a and sC5b-9 in human serum ([4]; 0.01 mg/ml): increased generation | Generation of C3a and sC5b-9 in human serum ([4]; 1 mg/ml): inhibitory effect | Generation of C3a ([5]; 0.01 mg/ml, FIG. 1, in words): significantly reduces | Coagulation activation products TAT, FXIa-AT and FXIIa-AT ([5]; 0.01 mg/ml, in words): suppressed | PAP ([5]; 0.01 mg/ml, in words): significantly suppressed | Generation of C3a and membrane attack complex sC5b-9 ([5]; 0.1 mg/ml and 1 mg/ml, FIGS. 1 and 2, in words): totally inhibits | C3a [5, 6]: 171.5 ± 72.4 ng/mL | FXIa-AT [5, 6]: 1.56 ± 0.82 µmol/L | Granulocytes (×10^9/l) [5, 6]: 3.23 ± 0.21 ×10^9/l | Lymphocytes (×10^9/l) [5, 6]: 1.94 ± 0.12 ×10^9/l | Monocytes (×10^9/l) [5, 6]: 0.38 ± 0.10 ×10^9/l | Platelets (×10^9/l) [5, 6]: 181.1 ± 16.3 ×10^9/l | TAT [5, 6]: 12.8 ± 4.9 µg/mL | sC5b-9 (AU/ml) [5, 6]: 41.6 ± 11.5 AU/ml | C3a [5, 7]: 630.6 ± 103.4 ng/mL | FXIIa-AT [5, 7]: 0.08 ± 0.02 µmol/L | FXIIa-C1 inh [5, 7]: 0.10 ± 0.03 µmol/mL | FXIa-AT [5, 7]: 0.13 ± 0.01 µmol/L | Granulocytes (×10^9/l) [5, 7]: 2.20 ± 0.40 ×10^9/l | Lymphocytes (×10^9/l) [5, 7]: 1.90 ± 0.11 ×10^9/l | Monocytes (×10^9/l) [5, 7]: 0.48 ± 0.10 ×10^9/l | PAP [5, 7]: 398.2 ± 60.7 ng/mL | Platelets (×10^9/l) [5, 7]: 108.2 ± 12.9 ×10^9/l | TAT [5, 7]: 645.3 ± 177.4 µg/mL | sC5b-9 (AU/ml) [5, 7]: 151.4 ± 27.9 AU/ml | C3a [5, 8]: 191.7 ± 36.6 ng/mL | FXIa-AT [5, 8]: 0.08 ± 0.01 µmol/L | Granulocytes (×10^9/l) [5, 8]: 2.80 ± 0.50 ×10^9/l | Lymphocytes (×10^9/l) [5, 8]: 1.91 ± 0.12 ×10^9/l | Monocytes (×10^9/l) [5, 8]: 0.40 ± 0.07 ×10^9/l | Platelets (×10^9/l) [5, 8]: 146.1 ± 8.1 ×10^9/l | TAT [5, 8]: 61.0 ± 8.6 µg/mL | sC5b-9 (AU/ml) [5, 8]: 61.9 ± 6.5 AU/ml | C3a [5, 9]: 215.6 ± 52.2 ng/mL | FXIa-AT [5, 9]: 1.17 ± 0.41 µmol/L | Granulocytes (×10^9/l) [5, 9]: 2.92 ± 0.37 ×10^9/l | Lymphocytes (×10^9/l) [5, 9]: 1.89 ± 0.10 ×10^9/l | Monocytes (×10^9/l) [5, 9]: 0.31 ± 0.05 ×10^9/l | Platelets (×10^9/l) [5, 9]: 162.3 ± 8.9 ×10^9/l | TAT [5, 9]: 15.0 ± 5.6 µg/mL | sC5b-9 (AU/ml) [5, 9]: 53.9 ± 7.1 AU/ml | Coagulation and complement activation ([5]; dose-dependent, in words): reduced | Blood cell consumption ([5]; in words): inhibited | Macroscopic clotting ([5]; in words): prevented | FXIIa-C1 INH ([5]; presence or absence of LMW-DS, in words): did not change
